Measured values published in patent US9062028B2, “Bicyclic nitrogen containing heteroaryl TGR5 receptor modulators” (Bristol-Myers Squibb Company, priority 2011, dated 2015).
Structures can show the parent of a compound that is named as a salt.

Target: T1, recombinant human TGR5 (Homo sapiens, UniProt Q8TDU6)
T1 construct: expressed in transfected cells
T1 sequence (Q8TDU6 1-330): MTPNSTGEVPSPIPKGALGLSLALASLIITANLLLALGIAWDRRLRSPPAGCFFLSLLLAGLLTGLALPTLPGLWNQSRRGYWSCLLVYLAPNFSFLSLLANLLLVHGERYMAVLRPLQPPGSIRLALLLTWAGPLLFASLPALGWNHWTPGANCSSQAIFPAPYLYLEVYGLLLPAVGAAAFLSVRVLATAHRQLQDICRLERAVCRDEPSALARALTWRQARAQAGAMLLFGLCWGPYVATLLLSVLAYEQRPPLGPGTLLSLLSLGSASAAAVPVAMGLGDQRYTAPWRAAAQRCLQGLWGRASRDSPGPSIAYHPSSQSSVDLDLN
Experiment: cAMP assay (cAMP accumulation, HTRF) in CHOK1 cells stably expressing TGR5
Type: cell-based
Settings: CHOK1 cells stably expressing human TGR5, 30 minutes at RT, 1% DMSO
Procedure, shortened: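 Agonist-induced cAMP accumulation: stable TGR5-CHOK1 cells treated 30 min at RT with compound (1% DMSO) plus 0.1 mM IBMX. HTRF ratio converted to nM cAMP via standard curve; EC50 from four-parameter logistic fit, midpoint between baseline and maximum.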

Row | EC50 | Compound
1 | 1350 nM | Cc1cccc(OCCCC(=O)N2CCCc3c(-c4cnn(Cc5cccc(C(=O)N(C)CCS(=O)(=O)O)c5)c4)cccc32)c1C [Example 829, 2-(3-((4-(1-(4-(2,3-Dimethylphenoxy)butanoyl)-1,2,3,4-tetrahydroquinolin-5-yl)-1H-pyrazol-1-yl)methyl)-N-methylbenzamido)ethanesulfonic acid]
2 | 2860 nM | Cc1cccc(OCCCC(=O)N2CCCc3c(-c4cnn(C(C)(C)C(=O)NCCS(=O)(=O)O)c4)cccc32)c1C [Example 146Y, 2-(2-(4-(1-(4-(2,3-Dimethylphenoxy)butanoyl)-1,2,3,4-tetrahydroquinolin-5-yl)-1H-pyrazol-1-yl)-2-methylpropanamido)ethanesulfonic acid]
3 | 3400 nM | O=C(O)c1cccc(Cn2cc(-c3cccc4c3C3CC3CN4C(=O)OCCOc3c(F)cccc3F)cn2)c1 (stereo not shown) [Example 32A, 3-((4-(3-((2-(2,6-Difluorophenoxy)ethoxy)carbonyl)-1a,2,3,7b-tetrahydro-1H-cyclopropa[c]quinolin-7-yl)-1H-pyrazol-1-yl)methyl)benzoic acid]
4 | 609 nM | Cc1cccc(OCCCC(=O)N2CCCc3c(-c4cnn(Cc5cccc(S(=O)(=O)NCCS(=O)(=O)O)c5)c4)cccc32)c1C [Example 110T, 2-(3-((4-(1-(4-(2,3-Dimethylphenoxy)butanoyl)-1,2,3,4-tetrahydroquinolin-5-yl)-1H-pyrazol-1-yl)methyl)phenylsulfonamido) ethanesulfonic acid]
5 | 2810 nM | Cc1cccc(OCCCC(=O)N2CCCc3c(-c4cccc(COC(=O)NC(CCS)C(=O)O)c4)cccc32)c1C (stereo not shown) [Example 289, 2-((3-(1-(4-(2,3-Dimethylphenoxy)butanoyl)-1,2,3,4-tetrahydroquinolin-5-yl)benzyloxy)carbonylamino)-4-mercaptobutanoic acid]
6 | 50 nM | Cc1cccc(OCCCC(=O)N2CC3CC3c3c(-c4cnn(Cc5c(F)cc(C(=O)NCS(=O)(=O)O)cc5Cl)c4)cccc32)c1C (stereo not shown) [Example 69B, (3-Chloro-4-((4-(3-(4-(2,3-dimethylphenoxy)butanoyl)-1a,2,3,7b-tetrahydro-1H-cyclopropa[c]quinolin-7-yl)-1H-pyrazol-1-yl)methyl)-5-fluorobenzamido)methanesulfonic acid]
7 | 186 nM | COC(=O)c1ccc(Cl)c(Cn2cc(-c3cccc4c3SCCN4C(=O)OCCOc3cccc(Cl)c3C)cn2)c1 [Example 367, 2-(3-Chloro-2-methylphenoxy)ethyl 8-(l-(2-chloro-5-(methoxycarbonyl)benzyl)-1H-pyrazol-4-yl)-2H-benzo[b][1,4]thiazine-4(3H)-carboxylate]
8 | 184 nM | Cc1cccc(OCCCC(=O)N2C[C@@H]3C[C@@H]3c3c(-c4cnn(Cc5cccc(C(=O)NC[C@@H](N)C(=O)O)c5)c4)cccc32)c1C [Example 887, (R)-2-Amino-3-(3-((4-((1aR,7bS )-3-(4-(2,3-dimethylphenoxy)butanoyl)-1a,2,3,7b-tetrahydro-1H-cyclopropa[c]quinolin-7-yl)-1H-pyrazol-1-yl)methyl)benzamido)propanoic acid]
9 | 45 nM | Cc1c(Cl)cccc1OCCOC(=O)N1C[C@@H]2C[C@@H]2c2c(-c3cnn(Cc4cc(C(=O)N[C@@H](CCC[N+](C)(C)C)C(=O)O)ccc4Cl)c3)cccc21 [Example 690, (S)-4-Carboxy-4-(4-chloro-3-((4-((1aR,7bS)-3-((2-(3-chloro-2-methylphenoxy)ethoxy)carbonyl)-1a,2,3,7b-tetrahydro-1H-cyclopropa[c]quinolin-7-yl)-1H-pyrazol-1-yl)methyl)benzamido)-N,N,N-trimethylbutan-1-aminium, TFA salt]

Row | Compound | EC50
10 | Cc1cccc(OCCCC(=O)N2CCCc3c(-c4cccc(COC(=O)N[C@@H](Cc5ccc(OP(=O)(O)O)cc5)C(=O)O)c4)cccc32)c1C [Example 324, (S)-2-((3-(1-(4-(2,3-Dimethylphenoxy)butanoyl)-1,2,3,4-tetrahydroquinolin-5-yl)benzyloxy)carbonylamino)-3-(4-(phosphonooxy)phenyl)propanoic acid] | 3390 nM
